Measured values from article PMC4703859, “Efficient backbone cyclization of linear peptides by a recombinant asparaginyl endopeptidase” (Nature Communications, 2015).
Where a SMILES comes first, the peptide text is derived from it. [ ]: non-standard residue; d: D form. The star is where a group is joined. Sta = CC(C)C[C@H](N)[C@@H](O)CC(=O)O; Isovaleryl = CC(C)CC(=O)*

Key:
rOaAEP1b [1] = experiment: Inhibition assay, enzyme activity against wt IQF peptide; format: biochemical, Oldenlandia affinis; settings: 40 min pre-incubation, wt IQF peptide 11 μM, 90 min
Protocol: To investigate the impact of inhibitors on enzyme activity against the wt IQF peptide, rOaAEP1b (4.4 μg ml^–1 total protein) was incubated with the indicated concentration of E64, Ac-YVAD-CHO, pepstatin A and iodoacetamide for 40 min before addition to the substrate (11 μM). Enzyme activity against the wt IQF peptide was then assessed as described above.
Supplementary Figure 3: rOaAEP1b activity against the wt IQF peptide in the presence of protease inhibitors. rOaAEP1b (~4.4 µg ml-1 total protein) was allowed to cleave the wt IQF peptide (11 µM) and fluorescence intensity was recorded every minute for 90 min. The enzyme activity in the presence of inhibitors is reported relative to a no inhibitor control at the 90 min time point. Each data point represents the average of two technical replicates and error bars report the range.
(1 picture or pasted object on this page, not shown here)

rOaAEP1b [2] = experiment: Cyclization assay of linear peptides followed by MALDI MS; format: biochemical, Oldenlandia affinis
Protocol: Linear target peptides (280 μM) were incubated with rOaAEP1b (12 μg ml^−1 total protein unless otherwise indicated) in activity buffer. The reaction was allowed to proceed for up to 22 h at room temperature and was analysed by matrix-assisted laser desorption/ionization MS (MALDI MS), RP-HPLC or NMR as appropriate.
To confirm the presence of cyclic product, R1 derivatives processed by rOaAEP1b were subsequently digested with endoGlu-C (25 μg ml^−1) in reaction buffer (50 mM Tris-HCl, 0.5 mM Glu–Glu, pH 8) such that the final dilution of the cyclization mix was 1:4. The reaction was allowed to proceed for 18 h at 37 °C before analysis by MALDI MS.
Cyclization of linear target peptides was monitored by MALDI MS. The reaction mixture (10–20 μl) was desalted using C18 zip tips and eluted in 4 μl 50% acetonitrile, 0.1% trifluoroacetic acid (TFA). A saturated MALDI matrix solution (α–cyano-4-hyroxycinnamic acid) prepared in 95% acetonitrile, 0.1% TFA was diluted 1:22 such that the final matrix solution comprised 90% acetonitrile, 0.1% TFA and 1 mM NH4H2PO4. Eluted samples were mixed 1:4 with the MALDI matrix, spotted onto a MALDI plate and analysed by an Ultraflex III TOF/TOF (Bruker) in positive reflector mode.

[3] = assayed against a small substrate; cited from earlier work
Protocol: The activity of rOaAEP1b against IQF peptides representing wt and mutant versions of the native kB1 C-terminal cleavage site was determined (Table 1; Supplementary Fig. 4a). […] This observation is consistent with the lack of cyclic product generated when the corresponding mutation was introduced in planta. Kinetic parameters (Vmax, Km and kcat) are reported where applicable (Table 1). The tur ...

With `CC(C)C[C@H](NC(=O)[C@H]1O[C@@H]1C(=O)O)C(=O)NCCCCN=C(N)N` [E64] the “effect of inhibitor on rOaAEP1b activity” value (rOaAEP1b [1]; E64 250 μM) was “not affected”.

For `NC(=O)CI` [iodoacetamide], the “effect of inhibitor on rOaAEP1b activity” value (rOaAEP1b [1]; iodoacetamide 1 mM, 4.4 μg ml^-1 total protein) was “inhibited”.

For `CC(C)CC(=O)N[C@H](C(=O)N[C@H](C(=O)N[C@@H](CC(C)C)[C@@H](O)CC(=O)N[C@@H](C)C(=O)N[C@@H](CC(C)C)[C@@H](O)CC(=O)O)C(C)C)C(C)C` [pepstatin A] (Isovaleryl-VV[Sta]A[Sta]-OH), the “effect of inhibitor on rOaAEP1b activity” value (rOaAEP1b [1]; pepstatin A 10 μM) was “not affected”.

For Ac-YVAD-CHO, the “effect of inhibitor on rOaAEP1b activity” value (rOaAEP1b [1]; Ac-YVAD-CHO 500 μM) was “poor inhibitor”.

In the case of “VFAEFLPLFSKFGSRMHILK [R1, anti-malarial peptide structurally unrelated to cyclotides]”, the “processing by rOaAEP1b of R1 peptides lacking a full recognition sequence” value (rOaAEP1b [2]; 22 h, MALDI MS) is reported as “No processing”, the “cyclization by rOaAEP1b following the addition of N- and C-terminal AEP recognition sequences” value (rOaAEP1b [2]; 22 h post addition of rOaAEP1b, MALDI MS, cyclic product confirmed by endoGlu-C digestion) is reported as “efficiently cyclized” and the cyclization efficiency (rOaAEP1b [2]; rOaAEP1b) is reported as about 100%.

B1: kB1L31A: kB1 precursor with a Leu31Ala mutation (peptide, UniProt P56254 23-124, looked up, variant L31A)
pro-form: SELSDSHKTTLVNEIAEKMLQRKILDGVEATLVTDVAEKMFLRKMKAEAKTSETADQVFLKQLQLKGLPVCGETCVGGTCNTPGCTCSWPVCTRNGAPSLAA
modifications: pro-form
notes: kB1 precursor with a Leu31Ala mutation
With B1 the “rOaAEP1b-mediated processing of modified kB1 and kB2 precursors over time” value (rOaAEP1b [2]; 280 μM peptide, pH 5, room temperature, 1, 5 and 22 h, MALDI MS, three technical replicates) was “cyclized far more slowly than the wt precursor”.

B2: recombinant human legumain: recombinant human AEP (protein, UniProt Q99538 18-323, looked up)
Legumain: VPIDDPEDGGKHWVVIVAGSNGWYNYRHQADACHAYQIIHRNGIPDEQIVVMMYDDIAYSEDNPTPGIVINRPNGTDVYQGVPKDYTGEDVTPQNFLAVLRGDAEAVKGIGSGKVLKSGPQDHVFIYFTDHGSTGILVFPNEDLHVKDLNETIHYMYKHKMYRKMVFYIEACESGSMMNHLPDNINVYATTAANPRESSYACYYDEKRSTYLGDWYSVNWMEDSDVEDLTKETLHKQYHLVKSHTNTSHVMQYGNKTISTMKVMQFQGMKRKASSPVPLPPVTHLDLTPSPDVPLTIMKRKLMNTN
In the case of B2, the “turnover rate (kcat)” value [3] is given as about 8 s⁻¹.
